Key:
dog = test: Chronic toxicity in the dog; type: in vivo; conditions: dogs
mercuric chloride = test: In vivo protective action against mercurial compounds; parameters: species or system male mice (Swiss strain); conditions: mercuric chloride 20 mg/kg ip, mice, 24 hours
Method: Forty male mice (Swiss strain, 22 grams mean bodyweight) were used for the investigation, subdivided into 4 groups treated as follows:
(1) mercuric chloride, 20 mg/kg/intraperitoneally;
(4) mercuric chloride 20 mg/kg/intraperitoneally+2-thiopropionylglycine 300 mg/kg/intraperitoneally.
Deaths occurred were recorded hourly in the first 5 hours, and thereafter after 24 hours.

[1] = Stability test: physical properties and weight variations on heating; type: physicochemical
Method: (§1) The stability tests were carried out according to the Rogers' nonisothermic method suitably integrated by the evaluation of physical data, melting point, weight variation, and spectrophotometric assay. For each single compound, the tests were performed on a series of samples, with the weight of 100 milligrams, added for the wet tests with 1 ml of distilled water. […] The sample were kept in a thermostat at increasing temperatures, i.e. from 25° to 80° C. […] The temperature, programmed according to the Rogers' formula, resulted to be 40° C. at the end of the first hour, 50° C. at the end of the second hour, 57° C. at the end of the third hour, 63° C. at the end of the fourth hour, 69° C. at the end of the fifth hour, 73° C. at the end of the sixth hour, 77° C. at the end of the seventh hour and, as already specified, 80° C. at the end of the eighth hour.
Still in Table 5, the sample from 1 to 5 refer, for each of the two compounds, to the dry substance while the samples from 6 to 10 refer to the solution or to the aqueous suspension obtained as above specified.
In the case of the wet-treated samples, the final weight was only established on the samples No. 10 brought to dryness at 60° C. under vacuum after an 8-hour heating.

[2] = Stability test: melting point before and after heating; type: physicochemical
Method: as §1
The melting point was established in a capillary tube, under identical conditions, on the samples No. 5 after heating for 8 hours in the previously specified conditions, and on the samples No. 10 after heating and evaporation to dryness as previously specified.

[3] = Rogers' nonisothermic method: energies of activation, specific velocities, validity periods; type: physicochemical; conditions: for stability vs 2-thiopropionylglycine (II): comparison of the two compounds
Method: as §1
The data shown in Table 7 were worked out according to the Rogers' method, drawing up the values of the energies of activation of the decomposition reactions under dry and wet conditions, the specific rate constants as well as the validity period.

[4] = system: histamine-induced bronchial spasm; test: Bronchial spasm due to histamine aerosol in the guinea-pig; type: in vivo, spotted guinea-pigs, male, Morini strain; parameters: key to time of resistance to the spasm, significance vs. controls (S): h.s.: highly significant; conditions: 50 mg/kg; for time of resistance to the spasm, significance vs. controls (S): one hour; for time of resistance to the spasm (E, mean ± standard error): one hour after treatment, control 114.1 ± 5.4
Method: Thirty spotted guinea-pigs, male, Morini strain, 400-500 g bodyweight, were used for the investigation, subdivided into 5 lots, each consisting of 6 animals. The animals were singly placed in a tightly sealed plexiglas cage into which a 0.1 percent aqueous solution of histamine hydrochloride was aerosolized. The time of resistance to the spasm was calculated from the moment of introduction into the cage up to the time of the appearance of the dyspnea crisis.
Group 1: controls with no treatment
In any case, the dose was 50 mg/kg.

elderly patients = type: in vivo, man
Method: The drug was assessed, with respect to its mucolytic action, on thirty elderly patients ([…], maximal 87, mean age 72). […] The improvement was assessed on the basis of the following parameters:
decrease of the daily quantity of sputum;
decrease of the viscosity of the sputum;
increase of the Tiffeneau's index;
improved value of the erythrocyte sedimentation rate.
A group of twenty patients, in the same mean age, was given for control purposes a known drug such as N-acetylcysteine.

[5] = system: bronchopneumopathies of the pediatric age; test: Clinical trials in pediatry, mucolytic efficacy in bronchopneumopathies; type: in vivo, man; conditions: decrease from 292.4±92.1 g/Hg, pediatric patients
[6] = Solubility and organoleptic properties; type: physicochemical
[7] = sample 1, dry, 1 hour 30 minutes
[8] = sample 3, dry, 5 hours 15 minutes
[9] = sample 10, wet, 8 hours, brought to dryness

SMILES: CC(SC(=O)c1cccs1)C(=O)NCC(=O)O (centres unmarked) [compound (I), 2-(2-thenoylthio)-propionylglycine]
- chronic toxicity results (dog): optimal
- deaths (mercuric chloride; 200 mg/kg ip): 10%
- deaths (mercuric chloride; 300 mg/kg ip): 10%
- Color [1, 7]: white
- Smell [1, 7]: almost absent
- Weight Fin. [1, 7]: 95.4 mg
- Weight Variations [1, 7]: -5.26%
- Color ([1]; sample 2, dry, 3 hours): white
- Weight Fin. ([1]; sample 2, dry, 3 hours): 94.5 mg
- Weight Variations ([1]; sample 2, dry, 3 hours): -5.03%
- Color [1, 8]: white
- Smell [1, 8]: almost absent
- Weight Fin. [1, 8]: 95.1 mg
- Weight Variations [1, 8]: -5.37%
- Color ([1]; sample 4, dry, 8 hours): white
- Smell ([1]; sample 4, dry, 8 hours): almost absent
- Weight Fin. ([1]; sample 4, dry, 8 hours): 94.9 mg
- Weight Variations ([1]; sample 4, dry, 8 hours): -5.74%
- Smell ([1]; sample 5, dry, 8 hours): almost absent
- Weight Fin. ([1]; sample 5, dry, 8 hours): 194.1 mg
- Weight Variations ([1]; sample 5, dry, 8 hours): -3.67%
- Smell ([1]; sample 6, wet): almost absent
- Smell ([1]; sample 7, wet): almost absent
- Smell ([1]; sample 8, wet): almost absent
- Smell ([1]; sample 9, wet): almost absent
- Weight Fin. [1, 9]: 201.3 mg
- Weight Variations [1, 9]: -2.94%
- melting point variation ([2]; after heating): no variations
- Final m.p. wet conditions (Sample 10) ([2]; after heating 8 hours wet and evaporation to dryness): 166-167 °C
- Final m.p. dry conditions (Sample 5) ([2]; after heating for 8 hours, dry): 166-167 °C
- Initial m.p. ([2]; before heating): 166-167 °C
- stability vs 2-thiopropionylglycine (II) ([3]; listed as 2-(2-thenoylthio)-propionyl-glycine (I)): markedly better stability
- stability vs 2-thiopropionylglycine (II) ([3]; listed as 2-(2-thenoylthio)-propionylglycine (I)): markedly more stable than the correspondent 2-thiopropionylglycine (II)
- Energy of activation of the decomposition reaction ([3]; dry): 12.28 kcal/mol
- Validity period ([3]; dry): unlimited
- K at 25° (specific rate constant) ([3]; dry, 25°): 0 h⁻¹
- Energy of activation of the decomposition reaction ([3]; wet): 13.27 kcal/mol
- bronchial-spasm relieving action ([4]; all the assessed routes): remarkable bronchial-spasm relieving action
- time of resistance to the spasm, significance vs. controls (S) ([4]; group 2, orally): h.s.
- time of resistance to the spasm (E, mean ± standard error) ([4]; group 2, orally, before treatment 116.00 ± 8.84): 184.7 ± 14.2 s
- time of resistance to the spasm, significance vs. controls (S) ([4]; group 3, aerosol): h.s.
- time of resistance to the spasm (E, mean ± standard error) ([4]; group 3, aerosol, before treatment 113.00 ± 5.62): 170.3 ± 10.9 s
- time of resistance to the spasm, significance vs. controls (S) ([4]; group 4, intraperitoneally): h.s.
- time of resistance to the spasm (E, mean ± standard error) ([4]; group 4, intraperitoneally, before treatment 112.16 ± 7.9): 187.2 ± 16.1 s
- time of resistance to the spasm, significance vs. controls (S) ([4]; group 5, rectally): h.s.
- time of resistance to the spasm (E, mean ± standard error) ([4]; group 5, rectally, before treatment 117.5 ± 6.39): 178.5 ± 11.9 s
- rapidity of action vs N-acetylcysteine (elderly patients; elderly patients): markedly better in terms of rapidity of action
- fit of cough on aerosol administration (elderly patients; in vivo): no fit of cough was observed
- patients with a marked improvement (elderly patients; of thirty elderly patients, two suppositories daily, each 0.36 grams, six days): Twenty-six
- mean viscosimetric value of the mucus after treatment [5]: 155.4±61.3 g/Hg
- odor [6]: odorless
- taste [6]: practically tasteless
- appearance in water ([6]; 100 milligrams with 1 ml of distilled water): white suspension
- solubility ([6]; all other inorganic solvents (so in the source)): scarcely soluble
- solubility ([6]; chloroform): soluble
- solubility ([6]; saturated solution of NaHCO3): soluble

Source: patent US4242354A, “2-(2-Thenolythio)-propionylglycine: method for its preparation and pharmaceutical formulations containing said compound” (Mediolanum Farmaceutici S.r.L., priority 1978, dated 1980)
